From patent US9125913B2, “Bcl-2-selective apoptosis-inducing agents for the treatment of cancer and immune diseases” (AbbVie Inc., priority 2008, dated 2015) come the findings set out here.

For the assay, the system named is GST-Bcl-2. Kind of assay: TR-FRET binding assay, Bcl-2. The note with it: TR-FRET Ki values. The method, then: Tb-anti-GST antibody was purchased from Invitrogen (Catalog No. PV4216).
Representative compounds were serially diluted in dimethyl sulfoxide (DMSO) starting at 50 μM (2× starting concentration; 10% DMSO) and 10 μL were transferred into a 384-well plate.
The samples were then mixed on a shaker for 1 minute and incubated for an additional 3 hours at room temperature. For each assay, the probe/antibody and protein/probe/antibody were included on each assay plate as negative and positive controls, respectively. Fluorescence was measured on the Envision (Perkin Elmer) using a 340/35 nm excitation filter and 520/525 (F-Bak peptide) and 495/510 nm (Tb-labeled anti-Histidine antibody) emission filters.
The inhibition constant (Ki) is the dissociation constant of an enzyme-inhibitor complex or a protein/small molecule complex, wherein the small molecule is inhibiting binding of one protein to another protein or peptide. […] Inhibition constants were determined using Wang's equation (Wang Z-X., An Exact Mathematical Expression For Describing Competitive Binding Of Two Different Ligands To A Protein Molecule. FEBS Lett. 1995, 360:111-4).
On to `C[C@H](Nc1ccc(S(=O)(=O)NC(=O)c2ccc(N3CCN(CC4=C(c5ccc(Cl)cc5)CC(C)(C)CC4)CC3)cc2Oc2ccc3[nH]ccc3c2)cc1[N+](=O)[O-])c1ccccc1` [EXAMPLE 378, 4-(4-{[2-(4-chlorophenyl)-4,4-dimethylcyclohex-1-en-1-yl]methyl}piperazin-1-yl)-2-(1H-indol-5-yloxy)-N-[(3-nitro-4-{[(1S)-1-phenylethyl]amino}phenyl)sulfonyl]benzamide], for which the “Binding selectivity ratio (Bcl-XL Ki/Bcl-2 Ki)” value (from here on “Binding selectivity ratio”) is reported as above 10.5.

In the case of `O=C(NS(=O)(=O)c1ccc(NCC2CCOCC2)c(S(=O)(=O)C(F)(F)F)c1)c1ccc(N2CCN(Cc3ccccc3-c3ccc(Cl)cc3)CC2)cc1Oc1ccccc1` [Example 163, 4-{4-[(4′-chloro-1,1′-biphenyl-2-yl)methyl]piperazin-1-yl}-2-phenoxy-N-({4-[(tetrahydro-2H-pyran-4-ylmethyl)amino]-3-[(trifluoromethyl)sulfonyl]phenyl}sulfonyl)benzamide], the “Binding selectivity ratio” value is above 117.5. Turning to `CC1(C)CCC(CN2CCN(c3ccc(C(=O)NS(=O)(=O)c4cnc(OC[C@H]5CC[C@H](O)CC5)c(Cl)c4)c(Oc4cccc5[nH]ncc45)c3)CC2)=C(c2ccc(Cl)cc2)C1` [EXAMPLE 421, Trans-N-({5-chloro-6-[(4-hydroxycyclohexyl)methoxy]pyridin-3-yl}sulfonyl)-4-(4-{[2-(4-chlorophenyl)-4,4-dimethylcyclohex-1-en-1-yl]methyl}piperazin-1-yl)-2-(1H-indazol-4-yloxy)benzamide], the “Binding selectivity ratio” value was 2090. Regarding `CC1(C)CCC(CN2CCN(c3ccc(C(=O)NS(=O)(=O)c4ccc(NCCCN5CCNC(=O)C5)c([N+](=O)[O-])c4)c(Oc4ccc5[nH]ccc5c4)c3)CC2)=C(c2ccc(Cl)cc2)C1` [EXAMPLE 222, 4-(4-{[2-(4-chlorophenyl)-4,4-dimethylcyclohex-1-en-1-yl]methyl}piperazin-1-yl)-2-(1H-indol-5-yloxy)-N-[(3-nitro-4-{[3-(3-oxopiperazin-1-yl)propyl]amino}phenyl)sulfonyl]benzamide], the “Binding selectivity ratio” value came to 1275.3. The same measure for `CCN1CCCC1CNC(=O)c1cc(S(=O)(=O)NC(=O)c2ccc(N3CCN(Cc4ccccc4-c4ccc(Cl)cc4)CC3)cc2Oc2ccccc2)ccc1OC` (stereo not drawn) [Example 33, 4-{4-[(4′-chloro-1,1′-biphenyl-2-yl)methyl]piperazin-1-yl}-N-{[3-({[(1-ethylpyrrolidin-2-yl)methyl]amino}carbonyl)-4-methoxyphenyl]sulfonyl}-2-phenoxybenzamide]: 49.9.

With `CC(=O)N1CCOC(CNc2ccc(S(=O)(=O)NC(=O)c3ccc(N4CCN(CC5=C(c6ccc(Cl)cc6)CC(C)(C)CC5)CC4)cc3Oc3cccc4[nH]cnc34)cc2[N+](=O)[O-])C1` (stereo not drawn) [EXAMPLE 457, N-[(4-{[(4-acetylmorpholin-2-yl)methyl]amino}-3-nitrophenyl)sulfonyl]-2-(1H-benzimidazol-4-yloxy)-4-(4-{[2-(4-chlorophenyl)-4,4-dimethylcyclohex-1-en-1-yl]methyl}piperazin-1-yl)benzamide], the “Binding selectivity ratio” value is listed as 7414. The same measure for `CC1(C)CCC(CN2CCN(c3ccc(C(=O)NS(=O)(=O)c4ccc(N[C@@H]5CCN(Cc6ccccc6)C[C@@H]5O)c([N+](=O)[O-])c4)c(Oc4ccc5[nH]ccc5c4)c3)CC2)=C(c2ccc(Cl)cc2)C1` [EXAMPLE 187, N-[(4-{[(3S,4R)-1-benzyl-3-hydroxypiperidin-4-yl]amino}-3-nitrophenyl)sulfonyl]-4-(4-{[2-(4-chlorophenyl)-4,4-dimethylcyclohex-1-en-1-yl]methyl}piperazin-1-yl)-2-(1H-indol-5-yloxy)benzamide]: above 2003.9; for `CC1(C)CCC(CN2CCN(c3ccc(C(=O)NS(=O)(=O)c4ccc(NC5CCN(CC(F)(F)F)CC5)c([N+](=O)[O-])c4)c(Oc4cccc5[nH]ccc45)c3)CC2)=C(c2ccc(Cl)cc2)C1` [Example 108, 4-(4-{[2-(4-chlorophenyl)-4,4-dimethylcyclohex-1-en-1-yl]methyl}piperazin-1-yl)-2-(1H-indol-4-yloxy)-N-[(3-nitro-4-{[1-(2,2,2-trifluoroethyl)piperidin-4-yl]amino}phenyl)sulfonyl]benzamide]: 25.5; for `CC1(C)CCC(CN2CCN(c3ccc(C(=O)NS(=O)(=O)c4ccc(NCCC(F)(F)F)c([N+](=O)[O-])c4)c(Oc4ccc5[nH]ccc5c4)c3)CC2)=C(c2ccc(Cl)cc2)C1` [EXAMPLE 324, 4-(4-{[2-(4-chlorophenyl)-4,4-dimethylcyclohex-1-en-1-yl]methyl}piperazin-1-yl)-2-(1H-indol-5-yloxy)-N-({3-nitro-4-[(3,3,3-trifluoropropyl)amino]phenyl}sulfonyl)benzamide]: above 445.7.

With `CO[C@H]1CC[C@H](CNc2ccc(S(=O)(=O)NC(=O)c3ccc(N4CCN(CC5=C(c6ccc(Cl)cc6)CC(C)(C)CC5)CC4)cc3Oc3cccc4[nH]ncc34)cc2[N+](=O)[O-])CC1` [EXAMPLE 446, Trans-4-(4-{[2-(4-chlorophenyl)-4,4-dimethylcyclohex-1-en-1-yl]methyl}piperazin-1-yl)-2-(1H-indazol-4-yloxy)-N-[(4-{[(4-methoxycyclohexyl)methyl]amino}-3-nitrophenyl)sulfonyl]benzamide], the “Binding selectivity ratio” value is on record as 508.4. The same measure for `CN1CCC(O)(CCNc2ccc(S(=O)(=O)NC(=O)c3ccc(N4CCN(CC5=C(c6ccc(Cl)cc6)CC(C)(C)CC5)CC4)cc3Oc3ccc4[nH]ccc4c3)cc2[N+](=O)[O-])CC1` [EXAMPLE 211, 4-(4-{[2-(4-chlorophenyl)-4,4-dimethylcyclohex-1-en-1-yl]methyl}piperazin-1-yl)-N-[(4-{[2-(4-hydroxy-1-methylpiperidin-4-yl)ethyl]amino}-3-nitrophenyl)sulfonyl]-2-(1H-indol-5-yloxy)benzamide]: 651.1. The value for `CN(C)CCOc1cccc(-c2ccc(Cl)cc2)c1CN1CCN(c2ccc(C(=O)NS(=O)(=O)c3ccc(NC4CCN(C)CC4)c([N+](=O)[O-])c3)c(Oc3cccc4[nH]ccc34)c2)CC1` [EXAMPLE 205, 4-[4-({4′-chloro-3-[2-(dimethylamino)ethoxy]-1,1′-biphenyl-2-yl}methyl)piperazin-1-yl]-2-(1H-indol-4-yloxy)-N-({4-[(1-methylpiperidin-4-yl)amino]-3-nitrophenyl}sulfonyl)benzamide] was 658.6; that for `CC1(C)CCC(CN2CCN(c3ccc(C(=O)NS(=O)(=O)c4ccc(NC5CCC(F)(F)CC5)c([N+](=O)[O-])c4)c(Oc4ccc5[nH]ccc5c4)c3)CC2)=C(c2ccc(Cl)cc2)C1` [EXAMPLE 305, 4-(4-{[2-(4-chlorophenyl)-4,4-dimethylcyclohex-1-en-1-yl]methyl}piperazin-1-yl)-N-({4-[(4,4-difluorocyclohexyl)amino]-3-nitrophenyl}sulfonyl)-2-(1H-indol-5-yloxy)benzamide] was above 179.2; that for `O=C(NS(=O)(=O)c1ccc(NCC2CCOCC2)c([N+](=O)[O-])c1)c1ccc(N2CCN(Cc3cc(OCCN4CCOCC4)ccc3-c3ccc(Cl)cc3)CC2)cc1Oc1ccccc1` [Example 115, 4-(4-{[4′-chloro-4-(2-morpholin-4-ylethoxy)-1,1′-biphenyl-2-yl]methyl}piperazin-1-yl)-N-({3-nitro-4-[(tetrahydro-2H-pyran-4-ylmethyl)amino]phenyl}sulfonyl)-2-phenoxybenzamide] was 156.4. The value for `CC1(C)CCC(CN2CCN(c3ccc(C(=O)NS(=O)(=O)c4cnc(NC5CCN(C6CC6)CC5)c(Cl)c4)c(Oc4cccc5[nH]ncc45)c3)CC2)=C(c2ccc(Cl)cc2)C1` [EXAMPLE 448, N-({5-chloro-6-[(1-cyclopropylpiperidin-4-yl)amino]pyridin-3-yl}sulfonyl)-4-(4-{[2-(4-chlorophenyl)-4,4-dimethylcyclohex-1-en-1-yl]methyl}piperazin-1-yl)-2-(1H-indazol-4-yloxy)benzamide] was 3119; that for `CN(C)CCCNc1ccc(S(=O)(=O)NC(=O)c2ccc(N3CCN(Cc4ccccc4-c4ccc(Cl)cc4)CC3)cc2Oc2ccc3cc[nH]c3c2)cc1[N+](=O)[O-]` [Example 47, 4-{4-[(4′-chloro-1,1′-biphenyl-2-yl)methyl]piperazin-1-yl}-N-[(4-{[3-(dimethylamino)propyl]amino}-3-nitrophenyl)sulfonyl]-2-(1H-indol-6-yloxy)benzamide] was 15.7; that for `CC1(C)CCC(CN2CCN(c3ccc(C(=O)NS(=O)(=O)c4ccc(NCC5(N6CCOCC6)CCCCC5)c([N+](=O)[O-])c4)c(Oc4ccc5[nH]ccc5c4)c3)CC2)=C(c2ccc(Cl)cc2)C1` [EXAMPLE 229, 4-(4-{[2-(4-chlorophenyl)-4,4-dimethylcyclohex-1-en-1-yl]methyl}piperazin-1-yl)-2-(1H-indol-5-yloxy)-N-[(4-{[(1-morpholin-4-ylcyclohexyl)methyl]amino}-3-nitrophenyl)sulfonyl]benzamide] was above 13.4.

On to `CC1(C)CCC(CN2CCN(c3ccc(C(=O)NS(=O)(=O)c4ccc(NN5CCS(=O)(=O)CC5)c([N+](=O)[O-])c4)c(Oc4ccc5[nH]ccc5c4)c3)CC2)=C(c2ccc(Cl)cc2)C1` [EXAMPLE 362, 4-(4-{[2-(4-chlorophenyl)-4,4-dimethylcyclohex-1-en-1-yl]methyl}piperazin-1-yl)-N-({4-[(1,1-dioxidothiomorpholin-4-yl)amino]-3-nitrophenyl}sulfonyl)-2-(1H-indol-5-yloxy)benzamide], for which the “Binding selectivity ratio” value is given as 3548.2.
